Measurements: ChEMBL document CHEMBL3763132, “Discovery of highly selective CRAF inhibitors, 3-carboxamido-2H-indazole-6-arylamide: In silico FBLD design, synthesis and evaluation” (Bioorg Med Chem Lett, 2016)

How the values were obtained:
[1] = Antiproliferative activity against human WM3629 cells by MTT/CellTiter 96 assay; assay type: functional
[2] = Antiproliferative activity against human A375P cells by MTT assay; assay type: functional
[3] = biological target: Focal adhesion kinase 1 (Homo sapiens) (UniProt Q05397); experiment: Inhibition of human FAK at 10 uM
[4] = biological target: Macrophage-stimulating protein receptor (Homo sapiens) (UniProt Q04912); experiment: Inhibition of human RON at 10 uM
[5] = biological target: T1, RAF proto-oncogene serine/threonine-protein kinase (Homo sapiens, UniProt P04049); details: 10 uM
Description: Inhibition of human RAF1 at 10 uM

[6] = biological target: RAC-alpha serine/threonine-protein kinase (Homo sapiens) (UniProt P31749); experiment: Inhibition of human AKT1 at 10 uM
[7] = biological target: Serine/threonine-protein kinase mTOR (Homo sapiens) (UniProt P42345); experiment: Inhibition of human mTOR at 10 uM
[8] = tested on: Serine/threonine-protein kinase B-raf (Homo sapiens), P15056 [V600E]; details: 10 uM
Description: Inhibition of human BRAF V599E mutant at 10 uM

[9] = biological target: Tyrosine-protein kinase SYK (Homo sapiens) (UniProt P43405); experiment: Inhibition of human SYK at 10 uM
[10] = biological target: ALK tyrosine kinase receptor (Homo sapiens) (UniProt Q9UM73); experiment: Inhibition of human ALK at 10 uM
[11] = biological target: Cyclin-dependent kinase 1/cyclin B1 (Homo sapiens) (UniProt P06493+P14635); experiment: Inhibition of human CDK1/cyclin B at 10 uM; assay type: protein-complex assay
[12] = biological target: Macrophage colony-stimulating factor 1 receptor (Homo sapiens) (UniProt P07333); experiment: Inhibition of human FMS at 10 uM
[13] = biological target: Proto-oncogene tyrosine-protein kinase Src (Homo sapiens) (UniProt P12931); experiment: Inhibition of human cSRC at 10 uM
[14] = biological target: Tyrosine-protein kinase Lck (Homo sapiens) (UniProt P06239); experiment: Inhibition of human LCK at 10 uM
[15] = biological target: Aurora kinase A (Homo sapiens) (UniProt O14965); experiment: Inhibition of human Aurora A at 10 uM
[16] = biological target: Tyrosine-protein kinase ABL1 (Homo sapiens) (UniProt P00519); experiment: Inhibition of human ABL1 at 10 uM
[17] = biological target: T1, RAF proto-oncogene serine/threonine-protein kinase; experiment: Inhibition of CRAF (unknown origin)
[18] = biological target: Vascular endothelial growth factor receptor 2 (Homo sapiens) (UniProt P35968); experiment: Inhibition of human KDR at 10 uM
[19] = biological target: Proto-oncogene tyrosine-protein kinase ROS (Homo sapiens) (UniProt P08922); experiment: Inhibition of human ROS1 at 10 uM
[20] = biological target: Mitogen-activated protein kinase 14 (Homo sapiens) (UniProt Q16539); experiment: Inhibition of human MAPK14 at 10 uM
[21] = biological target: Mitogen-activated protein kinase 10 (Homo sapiens) (UniProt P53779); experiment: Inhibition of human JNK3 at 10 uM
[22] = biological target: Tyrosine-protein kinase Lyn (Homo sapiens) (UniProt P07948); experiment: Inhibition of human LYN at 10 uM
[23] = biological target: T2, Serine/threonine-protein kinase B-raf (Homo sapiens, UniProt P15056); details: 10 uM
Description: Inhibition of human BRAF at 10 uM

[24] = biological target: Cyclin-dependent kinase 2/cyclin E1 (Homo sapiens) (UniProt P24864+P24941); experiment: Inhibition of human CDK2/cyclin E at 10 uM; assay type: protein-complex assay
[25] = biological target: Fibroblast growth factor receptor 2 (Homo sapiens) (UniProt P21802); experiment: Inhibition of human FGFR2 at 10 uM
[26] = biological target: Receptor-type tyrosine-protein kinase FLT3 (Homo sapiens) (UniProt P36888); experiment: Inhibition of human FLT3 at 10 uM
[27] = Selectivity ratio of GI50 for human A375P cells to GI50 for human WM3629 cells; assay type: functional
[28] = biological target: Insulin-like growth factor 1 receptor (Homo sapiens) (UniProt P08069); experiment: Inhibition of human IGF1R at 10 uM
[29] = biological target: Mast/stem cell growth factor receptor Kit (Homo sapiens) (UniProt P10721); experiment: Inhibition of human cKIT at 10 uM
[30] = biological target: Hepatocyte growth factor receptor (Homo sapiens) (UniProt P08581); experiment: Inhibition of human cMET at 10 uM
[31] = biological target: Serine/threonine-protein kinase PLK1 (Homo sapiens) (UniProt P53350); experiment: Inhibition of human PLK1 at 10 uM
[32] = biological target: Serine/threonine-protein kinase B-raf (Homo sapiens, UniProt P15056, V600E); experiment: Inhibition of BRAF V599E mutant (unknown origin)
[33] = biological target: T2, Serine/threonine-protein kinase B-raf; experiment: Inhibition of BRAF (unknown origin)
[34] = species on record: Homo sapiens; experiment: Inhibition of human PKA at 10 uM
[35] = biological target: Epidermal growth factor receptor (Homo sapiens) (UniProt P00533); experiment: Inhibition of human EGFR at 10 uM
[36] = biological target: Fibroblast growth factor receptor 3 (Homo sapiens) (UniProt P22607); experiment: Inhibition of human FGFR3 at 10 uM
[37] = biological target: Mitogen-activated protein kinase 3 (Homo sapiens) (UniProt P27361); experiment: Inhibition of human ERK1 at 10 uM
[38] = biological target: Glycogen synthase kinase-3 beta (Homo sapiens) (UniProt P49841); experiment: Inhibition of human GSK3beta at 10 uM
[39] = biological target: Dual specificity mitogen-activated protein kinase kinase 1 (Homo sapiens) (UniProt Q02750); experiment: Inhibition of human MEK1 at 10 uM
[40] = biological target: Tyrosine-protein kinase JAK3 (Homo sapiens) (UniProt P52333); experiment: Inhibition of human JAK3 at 10 uM

T2 sequence (P15056 whole entry): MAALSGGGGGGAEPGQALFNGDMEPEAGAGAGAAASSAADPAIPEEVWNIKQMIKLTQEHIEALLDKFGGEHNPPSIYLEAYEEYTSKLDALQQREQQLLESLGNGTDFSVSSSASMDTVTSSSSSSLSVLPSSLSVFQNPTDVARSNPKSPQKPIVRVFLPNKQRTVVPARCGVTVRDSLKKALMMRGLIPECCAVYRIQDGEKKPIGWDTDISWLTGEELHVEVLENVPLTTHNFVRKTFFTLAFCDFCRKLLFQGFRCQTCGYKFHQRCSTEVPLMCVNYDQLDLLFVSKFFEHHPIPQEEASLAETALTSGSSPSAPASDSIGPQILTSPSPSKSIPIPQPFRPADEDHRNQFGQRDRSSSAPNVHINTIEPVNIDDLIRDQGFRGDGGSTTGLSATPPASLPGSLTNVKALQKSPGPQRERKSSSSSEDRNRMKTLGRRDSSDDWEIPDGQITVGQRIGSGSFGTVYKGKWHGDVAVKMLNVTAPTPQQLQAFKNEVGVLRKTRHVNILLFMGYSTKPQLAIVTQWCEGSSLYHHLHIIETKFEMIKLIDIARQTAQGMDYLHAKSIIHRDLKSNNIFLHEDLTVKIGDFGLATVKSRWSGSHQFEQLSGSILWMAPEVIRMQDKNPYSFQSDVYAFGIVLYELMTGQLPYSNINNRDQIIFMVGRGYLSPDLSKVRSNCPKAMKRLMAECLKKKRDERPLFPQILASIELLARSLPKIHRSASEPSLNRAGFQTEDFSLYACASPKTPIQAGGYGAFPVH
T1 sequence (P04049 whole entry): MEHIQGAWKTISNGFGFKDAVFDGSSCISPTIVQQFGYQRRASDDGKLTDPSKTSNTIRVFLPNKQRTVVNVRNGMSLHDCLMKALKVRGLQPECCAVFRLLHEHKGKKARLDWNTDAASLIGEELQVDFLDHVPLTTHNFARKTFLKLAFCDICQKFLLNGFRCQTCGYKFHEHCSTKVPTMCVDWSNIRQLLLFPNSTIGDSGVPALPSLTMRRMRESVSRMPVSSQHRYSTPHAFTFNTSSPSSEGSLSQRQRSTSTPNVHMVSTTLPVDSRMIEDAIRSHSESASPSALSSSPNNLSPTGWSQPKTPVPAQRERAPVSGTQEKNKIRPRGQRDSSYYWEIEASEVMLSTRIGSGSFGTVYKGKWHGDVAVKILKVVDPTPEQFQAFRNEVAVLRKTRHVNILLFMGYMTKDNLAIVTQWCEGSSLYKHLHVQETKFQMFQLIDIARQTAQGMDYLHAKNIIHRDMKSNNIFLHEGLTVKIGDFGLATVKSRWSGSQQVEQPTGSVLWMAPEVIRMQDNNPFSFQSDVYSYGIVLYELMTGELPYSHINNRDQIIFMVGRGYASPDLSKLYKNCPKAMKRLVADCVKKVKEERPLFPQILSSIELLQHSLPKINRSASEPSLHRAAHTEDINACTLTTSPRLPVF
Sequence of Focal adhesion kinase 1 (Homo sapiens) (Q05397 2-1052 limits assumed): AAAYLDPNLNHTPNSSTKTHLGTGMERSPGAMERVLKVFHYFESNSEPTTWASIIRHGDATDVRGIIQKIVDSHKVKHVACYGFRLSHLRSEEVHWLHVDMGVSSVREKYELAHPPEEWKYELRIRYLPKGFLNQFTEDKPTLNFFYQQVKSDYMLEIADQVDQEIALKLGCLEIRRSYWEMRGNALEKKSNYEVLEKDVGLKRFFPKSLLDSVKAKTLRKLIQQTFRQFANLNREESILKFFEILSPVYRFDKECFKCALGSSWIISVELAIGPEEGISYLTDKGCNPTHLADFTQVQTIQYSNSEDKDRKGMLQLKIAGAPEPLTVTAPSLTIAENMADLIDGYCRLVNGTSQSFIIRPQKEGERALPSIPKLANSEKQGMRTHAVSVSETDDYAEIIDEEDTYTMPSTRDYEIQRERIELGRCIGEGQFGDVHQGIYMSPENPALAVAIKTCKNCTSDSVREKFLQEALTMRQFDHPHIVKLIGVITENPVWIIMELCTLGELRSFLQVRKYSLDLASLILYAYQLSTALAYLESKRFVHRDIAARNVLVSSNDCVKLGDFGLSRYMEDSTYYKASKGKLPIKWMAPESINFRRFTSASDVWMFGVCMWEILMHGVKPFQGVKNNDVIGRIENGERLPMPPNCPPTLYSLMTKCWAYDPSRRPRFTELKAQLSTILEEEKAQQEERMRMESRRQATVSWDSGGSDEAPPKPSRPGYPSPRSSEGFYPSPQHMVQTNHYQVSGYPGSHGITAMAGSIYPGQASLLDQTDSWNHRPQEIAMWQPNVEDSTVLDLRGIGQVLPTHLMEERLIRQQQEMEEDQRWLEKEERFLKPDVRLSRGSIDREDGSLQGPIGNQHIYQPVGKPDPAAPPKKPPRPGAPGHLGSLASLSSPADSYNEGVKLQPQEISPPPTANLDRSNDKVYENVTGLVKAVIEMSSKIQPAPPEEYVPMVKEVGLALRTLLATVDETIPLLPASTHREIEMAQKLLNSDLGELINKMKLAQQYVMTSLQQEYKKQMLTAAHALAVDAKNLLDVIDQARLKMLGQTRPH
Sequence of Epidermal growth factor receptor (Homo sapiens) (P00533 whole entry): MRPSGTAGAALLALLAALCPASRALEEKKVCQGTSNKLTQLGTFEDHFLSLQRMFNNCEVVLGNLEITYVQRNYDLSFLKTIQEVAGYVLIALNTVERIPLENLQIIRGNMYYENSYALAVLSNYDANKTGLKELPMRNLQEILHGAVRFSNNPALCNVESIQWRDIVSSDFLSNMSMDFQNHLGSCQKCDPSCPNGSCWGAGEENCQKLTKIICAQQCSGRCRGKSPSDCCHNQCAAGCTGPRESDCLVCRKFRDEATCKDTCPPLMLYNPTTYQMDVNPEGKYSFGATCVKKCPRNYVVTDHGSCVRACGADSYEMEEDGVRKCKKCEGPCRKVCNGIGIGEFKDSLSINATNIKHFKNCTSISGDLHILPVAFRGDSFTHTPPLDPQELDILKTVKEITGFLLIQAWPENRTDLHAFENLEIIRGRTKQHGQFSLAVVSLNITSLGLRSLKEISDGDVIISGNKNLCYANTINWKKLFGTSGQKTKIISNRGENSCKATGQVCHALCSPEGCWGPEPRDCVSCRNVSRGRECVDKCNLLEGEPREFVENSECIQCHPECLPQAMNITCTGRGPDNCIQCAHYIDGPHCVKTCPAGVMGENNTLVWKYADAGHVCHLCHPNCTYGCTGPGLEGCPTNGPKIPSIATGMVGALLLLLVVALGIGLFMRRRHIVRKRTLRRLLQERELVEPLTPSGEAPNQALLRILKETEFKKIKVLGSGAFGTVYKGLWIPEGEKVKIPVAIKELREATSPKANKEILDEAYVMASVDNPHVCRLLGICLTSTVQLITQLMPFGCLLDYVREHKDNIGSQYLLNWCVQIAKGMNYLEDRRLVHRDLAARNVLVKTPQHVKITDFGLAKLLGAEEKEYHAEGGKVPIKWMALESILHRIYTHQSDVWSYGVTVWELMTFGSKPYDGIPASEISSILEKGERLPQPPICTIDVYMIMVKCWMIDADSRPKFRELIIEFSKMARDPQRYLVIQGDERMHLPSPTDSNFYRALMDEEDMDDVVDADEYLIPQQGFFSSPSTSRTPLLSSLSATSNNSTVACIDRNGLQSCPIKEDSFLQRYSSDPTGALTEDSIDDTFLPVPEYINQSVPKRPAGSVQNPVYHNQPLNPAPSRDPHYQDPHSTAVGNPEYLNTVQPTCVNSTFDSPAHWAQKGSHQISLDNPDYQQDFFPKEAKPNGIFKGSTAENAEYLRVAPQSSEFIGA
Sequence of Tyrosine-protein kinase Lyn (Homo sapiens) (P07948 2-512 limits assumed): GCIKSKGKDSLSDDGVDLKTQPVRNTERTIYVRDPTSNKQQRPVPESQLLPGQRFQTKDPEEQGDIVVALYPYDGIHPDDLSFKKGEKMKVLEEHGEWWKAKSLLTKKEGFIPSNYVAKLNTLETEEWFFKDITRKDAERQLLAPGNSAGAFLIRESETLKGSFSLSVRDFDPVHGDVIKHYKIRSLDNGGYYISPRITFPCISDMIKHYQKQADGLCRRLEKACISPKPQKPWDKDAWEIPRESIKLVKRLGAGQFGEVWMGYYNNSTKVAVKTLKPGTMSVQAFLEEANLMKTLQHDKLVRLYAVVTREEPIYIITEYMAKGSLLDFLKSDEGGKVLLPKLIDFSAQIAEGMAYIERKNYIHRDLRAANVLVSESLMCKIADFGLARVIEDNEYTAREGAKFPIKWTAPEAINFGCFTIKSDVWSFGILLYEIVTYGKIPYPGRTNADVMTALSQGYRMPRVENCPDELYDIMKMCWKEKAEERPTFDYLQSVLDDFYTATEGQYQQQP
Sequence of Fibroblast growth factor receptor 2 (Homo sapiens) (P21802 22-821 limits assumed): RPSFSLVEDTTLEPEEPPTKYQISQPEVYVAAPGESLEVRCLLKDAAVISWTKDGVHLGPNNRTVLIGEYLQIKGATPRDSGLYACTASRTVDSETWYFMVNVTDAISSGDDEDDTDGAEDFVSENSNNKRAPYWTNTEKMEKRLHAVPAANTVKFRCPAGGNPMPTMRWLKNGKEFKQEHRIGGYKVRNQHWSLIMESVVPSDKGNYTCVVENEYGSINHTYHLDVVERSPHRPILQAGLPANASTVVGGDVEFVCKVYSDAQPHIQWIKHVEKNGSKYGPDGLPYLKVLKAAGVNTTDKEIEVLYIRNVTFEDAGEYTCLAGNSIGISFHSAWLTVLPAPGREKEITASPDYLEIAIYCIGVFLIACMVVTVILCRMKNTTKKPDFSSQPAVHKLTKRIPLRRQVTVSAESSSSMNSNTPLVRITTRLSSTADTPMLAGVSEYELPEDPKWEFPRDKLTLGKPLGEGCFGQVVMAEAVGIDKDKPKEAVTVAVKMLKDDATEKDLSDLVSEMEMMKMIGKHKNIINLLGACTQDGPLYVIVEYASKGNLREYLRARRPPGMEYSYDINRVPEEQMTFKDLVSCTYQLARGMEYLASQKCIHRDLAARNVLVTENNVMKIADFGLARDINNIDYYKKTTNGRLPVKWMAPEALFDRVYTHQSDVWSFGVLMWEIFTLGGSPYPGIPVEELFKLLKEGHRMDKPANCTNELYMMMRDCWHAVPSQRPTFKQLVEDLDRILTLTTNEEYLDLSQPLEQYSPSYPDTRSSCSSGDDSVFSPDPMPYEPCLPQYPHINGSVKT
Sequence of Serine/threonine-protein kinase B-raf (Homo sapiens), P15056 [V600E] (P15056 whole entry V600E): as the sequence (P15056 whole entry) above, with V600E counted along it

With COc1cccc(CNc2ccc3c(C(=O)N[C@@H](C)C(N)=O)[nH]nc3c2)c1 the GI50 [1] was 7.19 µM and the GI50 [2] was 17.8 µM.

With C[C@H](NC(=O)c1[nH]nc2cc(NC(=O)C(c3ccccc3)c3ccccc3)ccc12)C(N)=O the GI50 [1] was > 30 µM and the GI50 [2] was > 30 µM.

For C[C@H](NC(=O)c1[nH]nc2cc(NC(=O)Nc3ccc(N4CCOCC4)cc3)ccc12)C(N)=O, the GI50 [1] was 9.29 µM and the GI50 [2] was 12.3 µM.

For C[C@H](NC(=O)c1[nH]nc2cc(NC(=O)c3ccc4ncccc4c3)ccc12)C(N)=O, the GI50 [1] was > 30 µM and the GI50 [2] was > 30 µM.

With C[C@H](NC(=O)c1[nH]nc2cc(NC(=O)Nc3ccc(Cl)c(C(F)(F)F)c3)ccc12)C(N)=O the GI50 [1] was 6.59 µM and the GI50 [2] was 8.58 µM.

With CNC(=O)c1cc(Oc2ccc(NC(=O)Nc3ccc(Cl)c(C(F)(F)F)c3)cc2)ccn1 [SORAFENIB] the GI50 [1] was 0.78 µM and the GI50 [2] was 2.58 µM.

With C[C@H](NC(=O)c1[nH]nc2cc(NC(=O)c3cc4ccccc4s3)ccc12)C(N)=O the GI50 [1] was > 30 µM and the GI50 [2] was 28.2 µM.

Cc1cncn1-c1cc(C(=O)Nc2ccc3c(C(=O)N[C@@H](C)C(N)=O)[nH]nc3c2)cc(C(F)(F)F)c1 gave a GI50 [1] of 12.9 µM and a GI50 [2] of 7.19 µM.

For C[C@H](NC(=O)c1[nH]nc2cc(NC(=O)c3ccc(Cl)c(C(F)(F)F)c3)ccc12)C(N)=O, the GI50 [1] was 9.13 µM and the GI50 [2] was 10.5 µM.

Compound COc1ccc(-c2ccc(C(=O)Nc3ccc4c(C(=O)N[C@@H](C)C(N)=O)[nH]nc4c3)o2)cc1 has a GI50 [1] of 7.86 µM and a GI50 [2] of 19.2 µM.

For Cc1cncn1-c1cc(C(=O)Nc2cccc(CNc3ccc4c(C(=O)N[C@@H](C)C(N)=O)[nH]nc4c3)c2)cc(C(F)(F)F)c1, the GI50 [1] was 0.65 µM, the inhibition [3] was 8.88% and the inhibition [4] was 0.7%. The inhibition [5] was 99.4%, the inhibition [6] was 7.08% and the inhibition [7] was 0%. The inhibition [8] was 19.5%, the inhibition [9] was 2.89% and the inhibition [10] was 0%. For the same compound, the inhibition [11] was 8.36%, the inhibition [12] was 10.6% and the inhibition [13] was 0%. The inhibition [14] was 7.62%, the inhibition [15] was 4.99% and the inhibition [16] was 2.44%. The IC50 [17] was 38.6 µM, the inhibition [18] was 0% and the inhibition [19] was 1.49%. The inhibition [20] was 11.4%, the inhibition [21] was 0% and the inhibition [22] was 5.4%. The inhibition [23] was 21.1%, the inhibition [24] was 3.1% and the inhibition [25] was 9.75%. For the same compound, the inhibition [26] was 1.16%, the RatioGI50 [27] was 25 and the inhibition [28] was 0%. The inhibition [29] was 22.2%, the inhibition [30] was 9.84% and the inhibition [31] was 9.04%. It also gave an IC50 [32] of 7.82 µM, an IC50 [33] of 9.45 µM and an inhibition [34] of 0%. For the same compound, the inhibition [35] was 0%, the inhibition [36] was 14.9% and the inhibition [37] was 4.2%. For the same compound, the inhibition [38] was 12.3%, the inhibition [39] was 0% and the GI50 [2] was 15.9 µM. For the same compound, the inhibition [40] was 0%.

With C[C@H](NC(=O)c1[nH]nc2cc(NCc3cccc(NC(=O)c4cc(N5CCOCC5)cc(C(F)(F)F)c4)c3)ccc12)C(N)=O the GI50 [1] was 2.25 µM and the GI50 [2] was 25.6 µM.

C[C@H](NC(=O)c1[nH]nc2cc(NCc3cccc(NC(=O)c4cnccn4)c3)ccc12)C(N)=O gave a GI50 [1] of 7.86 µM and a GI50 [2] of 19.2 µM.

C[C@H](NC(=O)c1[nH]nc2cc(NC(=O)Nc3cccc(C(F)(F)F)c3)ccc12)C(N)=O showed a GI50 [1] of 6.43 µM and a GI50 [2] of 8.41 µM.

In the case of C[C@H](NC(=O)c1[nH]nc2cc(NC(=O)c3cc(N4CCOCC4)cc(C(F)(F)F)c3)ccc12)C(N)=O, the GI50 [1] is reported as > 30 µM and the GI50 [2] is reported as > 30 µM.

With C[C@H](NC(=O)c1[nH]nc2cc(NC(=O)Nc3ccc(C(F)(F)F)c(N4CCOCC4)c3)ccc12)C(N)=O the GI50 [1] was 3.51 µM and the GI50 [2] was 10.1 µM.

In the case of C[C@H](NC(=O)c1[nH]nc2cc(NC(=O)c3cccc(C(F)(F)F)c3)ccc12)C(N)=O, the GI50 [1] is reported as > 30 µM and the GI50 [2] is reported as > 30 µM.

Compound C[C@H](NC(=O)c1[nH]nc2cc(NC(=O)c3ccc(C(F)(F)F)c(N4CCOCC4)c3)ccc12)C(N)=O has a GI50 [1] of 7.37 µM and a GI50 [2] of 28.3 µM.

In the case of C[C@H](NC(=O)c1[nH]nc2cc(NCc3ccc(F)cc3)ccc12)C(N)=O, the GI50 [1] is reported as 9.05 µM and the GI50 [2] is reported as 10.1 µM.

In the case of C[C@H](NC(=O)c1[nH]nc2cc(NC(=O)c3ccccc3)ccc12)C(N)=O, the GI50 [1] is reported as > 30 µM and the GI50 [2] is reported as > 30 µM.

Work on COc1ccc(-n2ncc(C(=O)Nc3ccc4c(C(=O)N[C@@H](C)C(N)=O)[nH]nc4c3)c2C(F)(F)F)cc1 yielded a GI50 [1] of 3.28 µM and a GI50 [2] of 24.6 µM.

In the case of C[C@H](NC(=O)c1[nH]nc2cc(NC(=O)c3cccc(C(C)(C)C#N)c3)ccc12)C(N)=O, the GI50 [1] is reported as > 30 µM and the GI50 [2] is reported as > 30 µM.

With C[C@H](NC(=O)c1[nH]nc2cc(NCc3cccc(NC(=O)c4cccc(C(C)(C)C#N)c4)c3)ccc12)C(N)=O the GI50 [1] was 7.37 µM and the GI50 [2] was 28.3 µM.

Compound C[C@H](NC(=O)c1[nH]nc2cc(NCc3cccc(NC(=O)c4ccc(Cl)c(C(F)(F)F)c4)c3)ccc12)C(N)=O has a GI50 [1] of 4.54 µM and a GI50 [2] of 7.19 µM.
